# Key:
# HEI-OC1 [1] = assay: MTT assay in auditory cells HEI-OC1; assay type: cell-based; settings: for cytotoxicity in auditory hair cells (MTT): HEI-OC1, compound alone, up to elevated dose of 200
# Method: (§1) HEI-OC1 and UB-OC1 as auditory cells were subjected to MTT assay. Auditory cell lines were seeded on a 96-well plate in the ratio of 2×10^3 cells/well, and then cultured in an incubator under the condition of 37° C., 5% CO2 for 2 days. The compounds of Examples 1 and 2 were used at various concentrations with operating 5 runs for each sample, and then cultured in the incubator for 16 hours. The plate was treated with 1 mg/ml MTT solution per well, and then cultured in the incubator for 4 hours. Then, 100 μl DMSO per well was used to dissolve formazan, and the optical density of formazan as dissolved was measured at 540 nm.
# UB-OC1 = assay: MTT assay in auditory cells UB-OC1; assay type: cell-based
# Method: as §1
# HEI-OC1 [2] = assay: TUNEL assay; assay type: cell-based
# Method: 3×10^5 cells were seeded on the 6-well, incubated, then starved for 24 hours, and treated with the drug of the present invention by conditions, and then incubated for 24 hours. The cells were fixed with addition of 4% paraformaldehyde at normal temperature for 30 minutes, then washed two times with PBS, and treated with the permeablilization solution comprising 0.1% Triton X-100 at normal temperature for 10 minutes. The cells were washed again two times with PBS, and after adding terminal deoxynucleotidyl transferase (TDT) and nucleotide mixture, incubated for one hour with blocking out the light at 37° C. After washing two times with PBS, the apoptosis of cells was examined under fluorescence microscope. For control staining of cells without apoptosis, 4,6-diamino-2-phenylindole (DAPI, Sigma) solution was used. The stained cells were analyzed using a fluorescence microscope (Carl Zeiss, Oberkochen, Germany). TUNEL-positive cells were manually counted under a 200× magnification field in triplicate.
# auditory cells = assay: FACScan with Annexin-V and PI double staining; assay type: cell-based
# Method: The degree of apoptosis was analyzed with Annexin V-FITC Apoptosis Detection kit I (BD Biosciences, San Diego, Calif.). 3×10^5 cells were seeded on 60 mm dish, incubated, then starved for 24 hours, and treated with the compounds of Examples 1 and 2 by conditions and incubated for 24 hours. After removing the culture solution, the cells were washed two times with PBS, and suspended in the binding buffer in the ratio of 1×10^6 cells/ml. 100 μl of this solution was transferred to 5 ml tube, and after addition of 5 μl of Annexin V-FITC to the tube, well mixed together, and then reacted for about 15 minutes in the dark place. Then, 400 μl of the binding buffer was added, and the cells were counted until 10,000 cells were on Becton Dicki nson FACSscan (Lysis II Ver. 1.0). The degree of apoptosis was measured depending on the expression of Annexin V-FITC from the result of FACScan flowcytometry. In addition, the degree of apoptosis was also measured under fluorescence microscope.
# HEI-OC1 cells [3] = assay: Cell cycle analysis using FACScan; assay type: cell-based
# Method: The cells were treated with trypsin, washed with PBS, and then stained with a dye (5 mg/ml propidium iodide, 20 mg/ml RNase A) in a dark room at normal temperature for 15 minutes. The stained cells were analyzed with a flow cytometry cell sorter (Becton Dickinson).
# HEI-OC1 [4] = assay: Measurement of mitochondrial membrane potential (MMP), JC-1; assay type: cell-based
# Method: The mitochondrial membrane potential (MMP) was measured using 5,5V,6,6V-tetrachloro-1,1V,3,3V-tetraethylbenzimidazolcarbocyanine iodide (JC-1; Molecular Probes) as a lipophilic cationic probe.
# JC-1 is a fluorescent dye which is accumulated by mitochondria in its inside. If the function of mitochondria is normal, MMP is high and mitochondria are predominantly red. Then, if mitochondria are damaged, MMP is reduced and mitochondria are changed into green.
# [5] = system: JNK, p38, cleaved caspase 3, PARP in HEI-OC1; assay: Western blotting of apoptosis-related proteins; assay type: cell-based
# [6] = system: zebrafish (Danio rerio) embryo; assay: Drug toxicity in zebrafish and effect on zebrafish embryos; assay type: in vivo
# Method: To identify the drug toxicity of the compound of the present invention, zebrafish (Danio rerio) embryo was treated with the compound of Example 1 by concentrations (0, 50, 100, 150, 200, 400 μM), and then cultured in the incubator at 28.5° C. for one hour, washed three times with fresh 0.3× Danieu's Solution, and then cultured at 28.5° C. for 3 hours. The embryotoxicity was identified by examining the hatching rate, organogenesis, development, etc. of embryo under a microscope (AXIO vert 200, Carl zeiss, Gottingen, Germany), and the survival rate of embryo was determined depending on whether the cardiac contractility of embryo is present or absent.
# Further, to determine the general toxicity of the compound of Example 1, the influence of the compound of Example 1 on embryos of zebrafish were tested. One female and two male sexually mature zebrafish were maintained for a 14 h light/10 h dark photoperiod. Several rectangular mesh wire boxes were placed at the bottom of the aquaria to collect the eggs the following morning. The eggs were pre-treated with the compound of Example 1 (100 μg/ml) for 1 hr, after then the eggs were washed twice with sea salt 1×. […] After three washes with sea salt 1×, the zebrafish eggs were observed under a microscope.
# zebrafish neuromast [7] = assay: Observation of zebrafish neuromast using fluorescent microscope (Yo-Pro-1); assay type: in vivo, Danio rerio
# Method: When embryo of zebrafish (Danio rerio) wild type is on the 4th day, the drugs (compounds of Examples 1 and 2) were added to 2 ml of embryo media in 6 well, and then 5 embryos were added to each group and reacted with the drug in the incubator maintained at 28.5° C. for one hour. After reaction, embryos were washed three times with embryo media, and then placed in clean embryo media for 3 hours. After 3 hours, […] of Yo-Pro-1 (molecular probes, Oregon U.S.A) was added to embryo media, and then reacted for one hour in the place with blocking the light. After reaction, embryos were washed again three times with clean embryo media, and anesthetized with 8 μg/ml of MS222 (3-aminobenzoic aid ethyl ester, methanesulfonate salt, Sigma Chemical CO, St Louis, U.S.A) anesthetic.
# zebrafish neuromast [8] = assay: Scanning and transmission electron microscopy of zebrafish neuromast; assay type: in vivo, Danio rerio; settings: 50 μM cisplatin
# Source text: They were dried with a drier, treated with an evaporator (MED010; Baltec, Hudson, N.H.), and then observed using a scanning microscope (JSM-6700F JEOL, Tokyo, Japan).
# Larvae were cut in the direction from head to tail, sliced to a thickness of […], and then stained with 1% toluidine blue. They were divided into ultrathin sections (90 nm) using Ultracut S microtome (Leica, Wetzlar, Germany), mounted on 200-mesh Athene thin bar-grids, treated with uranyl acetate and lead citrate, and then observed using s transmission electron microscope (EM 902A Carl Zeiss).
# HEI-OC1 cells [9] = assay: Measurement of intracellular ROS generation (DCFDA); assay type: cell-based
# Method: Intracellular generation of ROS was quantified using 5-(and 6)-carboxyl-20,70-dichlorodihydro fluorescein diacetate (DCFDA; Molecular Probes, Eugene, Oreg., USA). […] ROS generation at various time points was checked and the amount of ROS generation was the highest at 16 h. Therefore, 16 h as the time point for ROS detection was chosen for subsequent experiments. Cells were incubated in the dark with 10 μM DCFDA in serum-free medium for 10 min at 33° C. The oxidative burst (hydrogen peroxide, H2O2) was detected using a FACScan flow cytometer (Becton Dickinson, Franklin Lakes, N.J., USA) with excitation and emission settings at 488 and 530 nm, respectively.
# neuromasts of zebrafish = assay type: in vivo; settings: 4 dpf larvae, 50 μM cisplatin co-treatment with compound
# Method: To detect the apoptotic cells in the embryos, TUNEL assay was employed. […] Thereafter, the larvae were washed with PBS and fixed in 4% paraformaldehyde with 0.1% Tween 20 at room temperature for 24 h. The fixed embryos were then dehydrated, rehydrated, and treated with 60 μg/ml protease kinase (Invitrogen, USA) for 10 min. After the protease kinase treatment, the embryos were fixed in 4% paraformaldehyde in PBS with 0.1% Tween 20 again. The TUNEL staining was achieved by using an in situ apoptosis detection kit. The fixed embryos were immersed in the permeabilization buffer for 30 min on ice. The apoptotic cells were labeled by staining the embryos in a mixture of Terminal Deoxynucleotidyl Transferase (TdT) enzyme and labeling safe buffer containing Fluorescein labeled-2′-Deoxyuridine, 5′-Triphosphate, FITC-dUTP in the ratio of 1 to 9. The embryos were then incubated in a 37° C. humidified chamber for 120 min. The embryos were finally washed thoroughly by PBS in 0.1% Tween 20. The apoptotic signals were captured by a fluorescence microscope (Carl Zeiss, Oberkochen, Germany).
# rat hearing [10] = assay: Measurement of brainstem evoked potential hearing in rat; assay type: in vivo; settings: cisplatin in combination with compound (2 mM inside eardrum)
# Method: Rats were anesthetized with a mixed anesthetic of 1:1 zoletil and rompun, and then subjected to the examination of brainstem evoked potential hearing. […] The stimulus sound was measured by lowering 13 times/sec of the alternating click sound from the strength of 75 dB HL at the ratio of 5 dB per step. The hearing threshold was defined to be a strength at which the normal wave form I is assumed on the basis of the wave form I, the frequency filter of click sound was controlled to 100-3000 Hz, and the number of total stimulus sound was 1,024.
# The drug was administered inside eardrum of rats with a 26 gage needle. The brainstem evoked potential hearing was measured a total of three times on days 1, 3 and 7 after administration of the drug.
# rat hearing [11] = assay: Auditory brainstem responses after transtympanic injection in rat; assay type: in vivo, Sprague-Dawley rats; settings: rat ears pretreated with transtympanic compound (2 mM), then cisplatin
# Method: Sixteen female Sprague-Dawley rats (Samtaco, Osan, Korea) weighing between 180 and 220 g were used. After transportation, the animals were maintained in the central animal laboratory for at least 1 week. The animals were housed in independently ventilated cages and were allowed free access to water and food. The temperature was maintained at 21±1° C., and the lights were turned on from 8:00 AM to 8:00 PM. Rats with an inner ear infection were not used. This study was approved by the Committee for Ethics in Animal Experiments of the Ajou University School of Medicine.
# Animals were sedated using an intraperitoneal (IP) injection of 3.125 mg/kg xylazine, 3.125 mg/kg zolazepam and 11.5 mg/kg xylazine. The rats were divided into two groups after baseline auditory brainstem response (ABR) testing was performed. […] The control group (four rats, eight ears) received transtympanic saline in both ears followed by IP saline (16 mL/kg by IP infusion). […] Posttreatment ABR was obtained on day 14.
# Preyer's reflex and otoscopy were used to confirm that the middle ears were normal. The rats were anaesthetized using an IP injection of 3.125 mg/kg zolazepam and 11.5 mg/kg xylazine. Subdermal sterile stainless steel electrode needles were attached, with the active lead at the vertex that referred to a second electrode located at the tip of the nose. The grounding electrode was placed on the front paw muscles. […]
# rat cochlea = assay: Tissue TUNEL assay of rat cochlea; assay type: in vivo; settings: cisplatin only
# Method: Animals were sedated using an intraperitoneal (IP) injection of 3.125 mg/kg xylazine, 3.125 mg/kg zolazepam and […]. The rats were divided into two groups after baseline auditory brainstem response (ABR) testing was performed. […] The control group (four rats, eight ears) received transtympanic saline in both ears followed by IP saline (16 mL/kg by IP infusion). The compound of Example 2 only group (four rats, eight ears) received transtympanic the compound of Example 2 in both ears followed by IP saline (16 mL/kg by IP infusion). On days 2 to 5, daily transtympanic injections of either 2 mM the compound of Example 2 or saline were continued. Posttreatment ABR was obtained on day 14.
# After fixation by intralabyrinthine perfusion of 4% paraformaldehyde (pH 7.4), the cochleae were removed and then were incubated in the same fixative overnight. Decalcification was performed in ethylenediamine tetraacetic acid solution (EDTA) (10% in PBS) for 3-4 weeks. Subsequently, the tissues were embedded in paraffin.
# Organ of Corti explants were each fixed for 15 min in 3.7% (v/v) formaldehyde in PBS at room temperature. Each explant was rinsed with PBS and incubated in proteinase K diluted from the TUNEL kit for 15 min at room temperature. […] Each explant was washed twice with PBS and examined using a fluorescence microscope.
smiles,measurement,setting,value
"NC1(c2ccc(F)cc2)C(=O)Nc2ccccc2C1=O (centres unmarked) [Example 1, 3-amino-3-(4-fluorophenyl)quinolin-2,4(1H,3H)-dione]",cisplatin-induced apoptosis of auditory hair cells (MTT),"HEI-OC1 [1]; HEI-OC1, 50 of cisplatin plus compound, as the dose of the compound increases",statistically significantly inhibited
same,cytotoxicity in auditory hair cells (MTT),HEI-OC1 [1],substantially no cytotoxicity
same,cisplatin-induced apoptosis of auditory hair cells (MTT),"UB-OC1; UB-OC1, 50 of cisplatin plus compound, as the dose of the compound increases",statistically significantly inhibited
same,cytotoxicity in auditory hair cells (MTT),"UB-OC1; UB-OC1, compound alone, up to elevated dose of 200",substantially no cytotoxicity
same,"apoptosis of auditory cells (TUNEL), cisplatin and compound at the same time","HEI-OC1 [2]; cisplatin (50 μM with Example 1, 20 μM with Example 2) and compound administered at the same time",inhibited
same,apoptosis (TUNEL positive cells) on administration of compound alone,HEI-OC1 [2],did not cause apoptosis
same,effect of 100 μM compared to 50 μM of compound (TUNEL),"HEI-OC1 [2]; with cisplatin, dose-dependent manner",better effect
same,"apoptosis increased by cisplatin (annexin/PI FACS), simultaneous administration of compound",auditory cells; 50 μM of cisplatin plus compound,statistically significantly inhibited
same,effect of 100 μM compared to 50 μM of compound (annexin/PI FACS),"auditory cells; with 50 μM cisplatin, dose-dependent manner",better effect
same,cisplatin-induced increase in sub G1,HEI-OC1 cells [3]; cisplatin plus compound,effectively reduced
same,"cisplatin-induced mitochondria damage (loss of MMP, green fluorescence)",HEI-OC1 [4]; cisplatin plus compound,inhibited
same,"cisplatin-induced JNK, p38, cleaved caspase 3, PARP",[5]; cisplatin plus compound,effectively inhibited
same,drug toxicity for 7 days after incubation of zebrafish,"[6]; 50, 100, 150, 200, 400 μM",did not show the drug toxicity
same,"zebrafish embryos, damage caused by cisplatin","[6]; cisplatin (50 μM) plus compound, 24 h",rescued
same,embryotoxicity in zebrafish model,[6]; even at the concentration of 400 μM,did not show the drug toxicity
same,neuromast including auditory hair cells disappeared by cisplatin,"zebrafish neuromast [7]; cisplatin plus compound, dose-dependent",effectively protected
same,"damage of kinocilium and stereocilia caused by cisplatin (SEM, TEM)",zebrafish neuromast [8]; combined use of compound,inhibited the damage of kinocilium and stereocilia
same,cisplatin-induced intracellular ROS generation,"HEI-OC1 cells [9]; 50 μM cisplatin plus compound (100 μg/ml), 16 h",significantly inhibited
same,TUNEL positive cells in zebrafish larvae compared to cisplatin alone,neuromasts of zebrafish,reduced TUNEL positive cells
same,hearing threshold,rat hearing [10],25˜35 dB
"NC1(c2ccc(F)cc2)C(=O)Nc2cccc(F)c2C1=O (centres unmarked) [Example 2, 3-amino-5-fluoro-3-(4-fluorophenyl)quinolin-2,4(1H,3H)-dione]",cytotoxicity in auditory hair cells (MTT),HEI-OC1 [1],substantially same result
same,apoptosis (TUNEL positive cells) on administration of compound alone,HEI-OC1 [2],did not cause apoptosis
same,average click-evoked ABR threshold shift,rat hearing [11],38.5±11.3 dB
same,"click-evoked ABR threshold shift, range",rat hearing [11],27-49 dB
"N.N.[Cl][Pt][Cl] [cisplatin, reference compound]",auditory hair cells killed by cisplatin (MTT),"HEI-OC1 [1]; HEI-OC1, 50 of cisplatin",about 50%
same,auditory hair cells killed by cisplatin (MTT),"UB-OC1; UB-OC1, 50 of cisplatin",about 50%
same,apoptosis (annexin/PI FACS),auditory cells; 50 μM of cisplatin,increased
same,sub G1 related to apoptosis,HEI-OC1 cells [3]; cisplatin alone,increase
same,mitochondrial membrane potential (JC-1 fluorescence),HEI-OC1 [4]; cisplatin alone,changed into green fluorescence
same,"JNK, p38, cleaved caspase 3, PARP",[5]; cisplatin alone,increased
same,reduction of neuromast,"zebrafish neuromast [7]; 50 μM cisplatin, zebrafish 4th day",≥ 70%
same,neuromast,"zebrafish neuromast [7]; 100 μM cisplatin, zebrafish 4th day",substantially all of neuromast was disappeared
same,"kinocilium of auditory cells of neuromast (SEM, TEM)",zebrafish neuromast [8],markedly damaged or mostly disappeared or fused
same,generation of intracellular ROS,"HEI-OC1 cells [9]; cisplatin, time-dependent",significantly increased
same,TUNEL positive cells in cochlea versus control group,rat cochlea,more numerous
